Measurements reported in US20120283096A1, “AGENT FOR IMPROVING PLANT GROWTH, SEEDS, AND METHOD FOR IMPROVING PLANT GROWTH” (Incorporated Administrative Agency National Agricu lture …, priority 2010, published 2012).

Tests used:
Assay type in all cases: in vivo
paddy rice = assay: Seedling establishment of coated paddy seeds in submerged soil containers (Examples 4-1 to 4-4b, FIGS. 11, 14-19c); conditions: germinated seeds, 30° C.
Procedure: The germinated paddy seeds were soaked for one minute in a tenfold diluted solution of a commercially available laundry starch (manufactured by Rocket Soap Co., Ltd.; My Laundry Starch) containing approximately a little less than 10% by weight of polyvinyl alcohol, centrifuged at 1000 rpm for removal of the extra solution, and, immediately after that, lightly covered with different amounts of ammonium molybdophosphate, whereby seeds with different amounts of ammonium molybdophosphate were prepared.
It should also be noted that in each of FIGS. 14 through 15b, the horizontal axis represents the number of moles (mmol) of molybdenum or tungsten that adhered per gram of dry seed. In each of FIGS. 14 through 15b, the dots correspond to the numbers of moles of 0, 0.02, 0.05, 0.1, 0.2, 0.5, 1, and 2 mmol, starting from the left.
It should be noted that in each of FIGS. 16 through 18, the horizontal axis represents the number of moles (mmol) of molybdenum that adhered per gram of dry seed. In each of FIGS. 16 through 18, the dots correspond to the numbers of moles of 0, 0.02, 0.05, 0.1, 0.2, 0.5, 1, and 2 mmol, starting from the left.
It should be noted that in FIG. 19a, the horizontal axis represents the number of moles (mmol) of molybdenum that adhered per gram of dry seed. In FIG. 19a, the dots correspond to the numbers of moles of 0, 0.02, 0.05, 0.1, 0.2, 0.5, 1, and 2 mmol, starting from the left.
The resulting seeds were allowed to spend time in a sufficiently wet condition so that the iron rusted, and then allowed to further spend overnight. […] Six containers were allotted for each condition, and the proportion of seedling establishment and the standard error were examined. It should be noted that in FIG. 19b, the horizontal axis represents the number of moles (mmol) of molybdenum that adhered per gram of dry seed. In FIG. 19b, the dots correspond to the numbers of moles of 0, 0.02, 0.05, 0.1, 0.2, 0.5, 1, and 2 mmol, starting from the left.
Six containers were allotted for each condition, and the proportion of seedling establishment and the standard error were examined. It should be noted that in FIG. 19c, the horizontal axis represents the actual weight ratios of 25 wt % calcium peroxide that adhered with respect to the weight of dry seed. In FIG. 19c, the dots correspond to the actual weight ratios of 25 wt % calcium peroxide of 0, 0.01, 0.02, 0.05, 0.1, 0.2, 0.5, and 1 time, starting from the left.

barley [1] = assay: Seedling establishment of barley seeds with ammonium molybdophosphate (Example 5, FIG. 12); conditions: 20° C. and 30° C., after two weeks
Procedure: As in Example 4-1, ammonium sulfate in an equivalent amount of 10 g/m^2 in terms of nitrogen and potassium chloride equivalent to 5 g/m^2 of potassium as potassium oxide were added as a solution to paddy humid soil, on the condition that the weight of dry soil is 100 kg/m^2. The soil was placed into each container (in the shape of a cylinder approximately 7 cm in diameter) in an amount equivalent to 100 g of dry soil, shaken for approximately one hour, and left at rest for two days at 4° C. It should be noted, however, that the soil-to-liquid ratio was 0.7. On this condition, the soil surface became substantially as high as the water surface. Barley seeds (branded as Nishinochikara) and soybean seeds (branded as Fukuyutaka) not subjected to treatment such as soaking in advance were soaked in water for one minute. Immediately after the extra water was removed, the seeds were put with a […] molybdenum amount of ammonium molybdophosphate (purchased from Wako Pure Chemical Industries, Ltd.) per gram of dry seed. The seeds were then half-buried in the samples of soil. […] Six containers were allotted for each condition, and the proportion of seedling establishment (proportion of individual plants that survived) was measured after two weeks.

wheat = assay: Seedling establishment of wheat seeds in humid soil (Example 6-1, FIG. 20b); conditions: 0.01 mmol to 0.5 mmol molybdenum per gram of dry seed, 20° C., after two weeks
Procedure: As in Example 4-1, ammonium sulfate in an equivalent amount of 10 g/m^2 in terms of nitrogen and potassium chloride equivalent to 5 g/m^2 of potassium as potassium oxide were added as a solution to paddy humid soil in terms of 100 kg/m^2 of dry soil with a soil-to-liquid ratio of 0.7. The soil was placed into each container (in the shape of a cylinder approximately 7 cm in diameter) in an amount equivalent to 100 g of dry soil. The soil surface was flattened by giving it a slight press with a flat plate. Then, the soil was left at rest for one day at 4° C. […] The seeds were then half-buried in the soil. After that, at a constant temperature of 20° C., the water level was kept by adding water to such an extent that the seeds were slightly covered with water. Six containers were allotted for each condition, and the proportion of seedling establishment (proportion of individual plants that survived) was measured after two weeks. It should be noted that in each of FIGS. 20a and 20b, the horizontal axis represents the number of moles (mmol) of molybdenum that adhered per gram of dry seed. In each of FIGS. 20a and 20b, the dots correspond to the numbers of moles of 0, 0.01, 0.02, 0.05, 0.1, 0.2, and 0.5 mmol, starting from the left. […]

barley [2] = assay: Avoidance of wet damage to barley in a poorly-drained paddy field (Example 7, FIG. 21)
Source text: To a poorly-drained paddy field in Chikugo City, Fukuoka Prefecture, 1.2 t/10 a of cow manure and ammonium sulfate in an equivalent amount of 6 kg/10 a in terms of nitrogen were applied. In November 2009, 9 kg/10 a of barley seed (branded as Nishinochikara) was planted. In February 2010, the paddy field was partitioned by corrugated plates into eight areas 50 cm×70 cm each. On Feb. 19, 2010 or Mar. 17, 2010, ammonium molybdophosphate was applied in equivalents amounts of 0, 0.03, 0.1, 0.3 mol/m^2 in terms of molybdenum. On May 11, 2010, the shoots of the barley in the areas partitioned from one another by the corrugated plates were harvested, and the dry weight was obtained.

For “Triammonium 12-moblydo(VI)phosphate trihydrate [Ammonium molybdophosphate]”, the “molybdenum or tungsten amount leading to improvements in proportion of seedling establishment” value (paddy rice; polyvinyl alcohol adhesive, compared with 0 mmol/g) was ≥ 0.02 mmol per gram of dry seeds, the “proportion of seedling establishment” value (paddy rice; molybdenum amount of 0.5 mmol/g or more, FIG. 11) was ~80% and the “proportion of seedling establishment” value (barley [1]) was “improvements in proportion of seedling establishment”. For the same substance, the “proportion of seedling establishment” value (wheat) was “improvements in proportion of seedling establishment”, the “dry weight of the shoots at harvest time, trend with amount applied” value (barley [2]; 0.03 to 0.3 mol/m^2 in terms of molybdenum) was “increase in dry weight of the shoots” and the “dry weight of the shoots at harvest time” value (barley [2]; approximately 0.3 mol/m^2 molybdenum applied in February) was “approximately 0.25 kg/m^2”.
